Assay results published in patent publication US20070148154A1, “Use of superoxide dismutase mimetics and reductase gultatione in the form of anticancer drugs” (UNIVERSITE RENE DESCARTES (PARIS V), priority 2004, published 2007).

Experiments:
Hepa 1-6 tumor cells = assay: In vitro viability test (MTT); format: cell-based, mouse; conditions: for viability reduced by: 400 μM, 48 h
Protocol: (§4) In vitro viability tests, in response to the treatment with NAC, CuDIPS, MnTBAP or MnDPDP, were carried out on the cell lines of Example 1 and on normal human leukocytes. The latter were obtained from normal volunteers, after informed consent, by taking venous blood samples collected on an anticoagulant (lithium-heparinate). The red blood cells were lysed by osmotic shock using a hypotonic solution of potassium acetate and the leukocytes were cultured under the conditions described in Example 1.
(§5) For the viability test, the cells (2×10^4 cells/well) were seeded into 96-well plates (COSTAR, Corning Inc. NY, USA) and incubated for 48 hours in complete medium supplemented with increasing concentrations, from 0 to 400 μm, of NAC, of MnTBAP, of CuDIPS or of MnDPDP. The cell viability was evaluated by reduction of a methylthiazoletetrazolium salt (MTT; SIGMA) into formazan. The cells were exposed to 20 μl of MTT (5 mg/ml in PBS) and incubated for 4 h at 37° C. 150 μl of medium were then removed from each well and the reaction was visualized by the addition of 100 μl of DMSO (SIGMA). The absorbance was analyzed for each well at 550 nm and at 630 nm with an ELISA plate reader. The number of viable cells was determined by the difference between the absorbance at 550 nm and the absorbance at 630 nm.
(§6) The viability tests were carried out on the CT26, Hepa 16 and A549 tumor lines, and on normal human leukocytes, according to the protocol described in Example 2.

CT26 tumor cells = assay: In vitro viability test (MTT); format: cell-based, mouse; conditions: for viability reduced by: 400 μM, 48 h
Protocol: as §4, §5, §6

A549 tumor cells = assay: In vitro viability test (MTT); format: cell-based, human; conditions: for viability reduced by: 400 μM, 48 h
Protocol: as §4, §5, §6

[1] = system: CT26 carcinoma tumor cells in BALB/c mice; assay: In vivo antitumor activity, subcutaneous CT26 tumors; set-up: species or system mouse; conditions: for decrease in tumor volume at one month compared with the nontreated animals / decrease in tumor volume at one month compared with animals treated only with oxaliplatin: 10 mg/kg i.p.; for decrease in tumor volume at one month compared with the nontreated animals: no oxaliplatin; for decrease in tumor volume at one month compared with animals treated only with oxaliplatin: plus oxaliplatin 20 mg/kg
Protocol: (§1) The in vivo antitumor activity of various antioxidant treatments was estimated. For these experiments, female six- to eight-week-old BALB/c (for the injection of CT-26 tumor cells) or C57/BL6 (for the injection of Hepa 1-6 tumor cells) mice were used (IFFA CREDO, L'Arbresles, France). Two million tumor cells were injected into the back of the animals subcutaneously. When the size of the tumor reached 200 to 500 mm^3, the animals were given a single injection of 20 mg/kg of oxaliplatin (ELOXATIN®) or of a saline solution.
(§2) The mice were then treated intraperitoneally, two hours after the injection of oxaliplatin or of saline solution, with 10 mg/kg of mangafodipir, of MnTBAP or of CuDIPS, or with 150 mg/kg of NAC, or with a saline solution. The injection of the various antioxidants was continued for one month (three injections per week at the same doses). A group of mice inoculated with tumor cells was not treated.
(§3) The size of the tumors was measured every three days. The tumor volume was calculated as follows: VT (mm^3)=(L×W^2)/2, where L is the longest dimension and W the shortest dimension of the tumor in mm. Fifteen mice were included in each group.

[2] = system: Hepa 1-6 cells in C57BL/6 mice; assay: In vivo antitumor activity, subcutaneous Hepa 1-6 tumors; set-up: species or system mouse; conditions: for decrease in tumor volume at one month compared with the nontreated animals: no oxaliplatin; for effect on the inhibitory (antitumor) effect of oxaliplatin on tumor growth: mice treated with oxaliplatin 20 mg/kg, NAC 150 mg/kg, SOD mimetics 10 mg/kg i.p.
Protocol: as §1, §2, §3

normal human leukocytes = assay: In vitro viability test (MTT); conditions: for decrease in cell viability, maximum / effect on viability of normal human leukocytes: 0 to 400 μM, 48 h; for effect on the cytotoxic effect of taxol on normal leukocytes: with 20 μM taxol; for effect on the cytotoxic effect of taxol on normal leukocytes / effect on the cytotoxic effect of oxaliplatin on normal leukocytes / effect on the cytotoxic effect of 5-FU on normal leukocytes: increasing concentrations of antioxidant; for effect on the cytotoxic effect of oxaliplatin on normal leukocytes: with 1 mM oxaliplatin; for effect on the cytotoxic effect of 5-FU on normal leukocytes: with 40 mM 5-FU; for decrease in viability of normal leukocytes, antitumor agent alone: no antioxidant
Protocol: as §4, §5, §6

[3] = system: Hepa 1-6, CT26 and A549 tumor cells; assay: In vitro viability test (MTT), result stated for the tumor lines together; conditions: for effect on the cytotoxic effect of oxaliplatin on tumor cells: with 10 μM oxaliplatin; for effect on the cytotoxic effect of oxaliplatin on tumor cells / effect on the cytotoxic activity of taxol on tumor cells / effect on the cytotoxic activity of 5-FU on tumor cells: increasing concentrations of antioxidant; for effect on the cytotoxic activity of taxol on tumor cells: with 10 μM taxol; for effect on the cytotoxic activity of 5-FU on tumor cells: with 50 μM 5-FU; for effect on tumor cell viability: 0 to 400 μM, 48 h
Protocol: In vitro viability tests, in response to the treatment with NAC, CuDIPS, MnTBAP or MnDPDP, were carried out on the cell lines of Example 1 and on normal human leukocytes.
as §5
For each of these molecules, cell proliferation assays and cell viability tests were carried out, in the absence of antioxidant molecules, or in the presence of increasing concentrations of NAC, of MnTBAP, of CuDIPS or of MnDPDP.
as §6

[4] = system: Hepa 1-6, CT26 and A549 tumor cells; assay: In vitro cell proliferation assay ([3H]-thymidine), result stated for the tumor lines together; conditions: for reduction in cell proliferation: 400 μM, 48 h incubation; for effect on the cytostatic (antiproliferative) effect of oxaliplatin: with 10 μM oxaliplatin; for effect on the cytostatic (antiproliferative) effect of oxaliplatin / effect on the cytostatic effect of taxol / effect on the cytostatic effect of 5-FU: increasing concentrations of antioxidant; for effect on the cytostatic effect of taxol: with 10 μM taxol; for effect on the cytostatic effect of 5-FU: with 50 μM 5-FU
Protocol: (§7) In vitro cell proliferation assays were carried out on the following cell lines: CT26 (mouse colon carcinoma, ATCC (American Type Culture Collection) No. 2638), Hepa 1-6 (mouse liver hepatoma, ATCC No. 1830), A549 (human lung carcinoma, ATCC No. 185).
(§8) The cell proliferation is determined by incubating the cells for 16 hours with [^3H]-thymidine (1 μCi/well).
The following antitumor molecules: oxaliplatin (belonging to the cisplatin family); taxol; 5-fluorouracil; which are known to induce ROS production in tumor cells, were used. For each of these molecules, cell proliferation assays and cell viability tests were carried out, in the absence of antioxidant molecules, or in the presence of increasing concentrations of NAC, of MnTBAP, of CuDIPS or of MnDPDP.

[5] = system: Hepa 1-6 (mouse liver hepatoma); assay: In vitro cell proliferation assay ([3H]-thymidine); format: cell-based; conditions: for decrease in tumor cell proliferation, antitumor agent alone: no antioxidant
Protocol: as §7, §8

[6] = system: CT26 (mouse colon carcinoma); assay: In vitro cell proliferation assay ([3H]-thymidine); format: cell-based; conditions: for decrease in tumor cell proliferation, antitumor agent alone: no antioxidant
Protocol: as §7, §8

[7] = system: A549 (human lung carcinoma); assay: In vitro cell proliferation assay ([3H]-thymidine); format: cell-based; conditions: for decrease in tumor cell proliferation, antitumor agent alone: no antioxidant
Protocol: as §7, §8

plasmid pcDNA3.1 = assay: Plasmid DNA alteration (agarose gel electrophoresis, densitometry); conditions: for effect on the structure of plasmid DNA (form I / II / III): 37° C., 24 h, SOD mimetics 5 μM, oxaliplatin maximum at DNA/oxaliplatin ratio 0.5
Protocol: The purified plasmid pcDNA3.1 (INVITROGEN) was used to analyze the potential DNA alterations in response to the addition of molecules used in cancer chemotherapy in the presence, or in the absence, of antioxidant enzyme modulators. This DNA was then stored at −20° C. in 10 mM TRIS, 1 mM EDTA until its use.
The plasmid DNA was incubated with oxaliplatin at a molar ratio of 0.50 in a final volume of 50 μl. MnTBAP (5 μM), CuDIPS (5 μM), mangafodipir (5 μM) or NAC (5 mM) were then added to the solution. The production of superoxide anion was realized by the addition of 200 μM xanthine (SIGMA) and 1 U of xanthine oxidase (SIGMA). The incubation was carried out in the dark at 37° C. for 24 h. At the end of the incubation period, 10 μl aliquots were subjected to 0.8% agarose gel electrophoresis and detected by ethidium bromide staining. The gels were then analyzed by densitometry (VILBER LOURMAT, Marnes-la-Vallée, France).

[8] = 10 mg/kg i.p., three injections per week

| Molecule | decrease in tumor volume at one month compared with the nontreated animals ([1]; three injections per week) | decrease in tumor volume at one month compared with animals treated only with oxaliplatin ([1]; three injections per week) | decrease in tumor volume at one month compared with the nontreated animals [2, 8] | effect on the inhibitory (antitumor) effect of oxaliplatin on tumor growth [2] | effect on the cytotoxic effect of taxol on normal leukocytes (normal human leukocytes) | effect on the cytotoxic effect of oxaliplatin on normal leukocytes (normal human leukocytes) | effect on the cytotoxic effect of 5-FU on normal leukocytes (normal human leukocytes) | effect on the cytotoxic effect of oxaliplatin on tumor cells [3] | effect on the cytotoxic activity of taxol on tumor cells [3] | effect on the cytotoxic activity of 5-FU on tumor cells [3] | reduction in cell proliferation [4] | effect on the cytostatic (antiproliferative) effect of oxaliplatin [4] | effect on the cytostatic effect of taxol [4] | effect on the cytostatic effect of 5-FU [4] | also measured |
| --- | --- | --- | --- | --- | --- | --- | --- | --- | --- | --- | --- | --- | --- | --- | --- |
| O=C(O)c1ccc(-c2c3nc(c(-c4ccc(C(=O)O)cc4)c4ccc([n-]4)c(-c4ccc(C(=O)O)cc4)c4nc(c(-c5ccc(C(=O)O)cc5)c5ccc2[n-]5)C=C4)C=C3)cc1.[Mn+3] [MnTBAP, Mn(III) tetrakis(5,10,15,20-benzoic acid)-porphyrin] | 59% | 35% | 42% | does not significantly increase | virtually no influence | increase | only a very weak influence | increase | increases | increases | ~90% | increase | increases | increase | viability reduced by (Hepa 1-6 tumor cells): 62%; viability reduced by (CT26 tumor cells): 75%; viability reduced by (A549 tumor cells): 37%; decrease in cell viability, maximum (normal human leukocytes): 18% |
| CC(=O)O[C@H]1C(=O)[C@@]2(C)[C@H]([C@H](OC(=O)c3ccccc3)[C@]3(O)C[C@H](OC(=O)[C@H](O)[C@@H](NC(=O)c4ccccc4)c4ccccc4)C(C)=C1C3(C)C)[C@]1(OC(C)=O)CO[C@@H]1C[C@@H]2O [taxol] |  |  |  |  |  |  |  |  |  |  |  |  |  |  | decrease in tumor cell proliferation, antitumor agent alone ([5]; 10 μM): 65%; decrease in tumor cell proliferation, antitumor agent alone ([6]; 10 μM): 71%; decrease in tumor cell proliferation, antitumor agent alone ([7]; 10 μM): 85%; cytotoxicity at 10 µM (Hepa 1-6 tumor cells; Mus musculus, Hepa1-6, 10 μM, no antioxidant, read-out: decrease in cell viability, antitumor agent alone, on average): 25%; cytotoxicity at 10 µM (CT26 tumor cells; Mus musculus, CT26, 10 μM, no antioxidant, read-out: decrease in cell viability, antitumor agent alone, on average): 50%; cytotoxicity at 10 µM (A549 tumor cells; Homo sapiens, A549, 10 μM, no antioxidant, read-out: decrease in cell viability, antitumor agent alone, on average): 47%; decrease in viability of normal leukocytes, antitumor agent alone (normal human leukocytes; 20 μM): approximately 50% |
| CC(C)c1cc(C(=O)[O-])c(O)c(C(C)C)c1.CC(C)c1cc(C(=O)[O-])c(O)c(C(C)C)c1.[Cu+2] [CuDIPS, Cu[II]-[diisopropylsalicylate]] | 28% | 31% | 9% | does not significantly increase | increases | increase | increases | increase | increases | increases | ~90% | increase | increases | increase | viability reduced by (Hepa 1-6 tumor cells): 74%; viability reduced by (CT26 tumor cells): 85%; viability reduced by (A549 tumor cells): 50%; decrease in cell viability, maximum (normal human leukocytes): 50% |
| O=c1[nH]cc(F)c(=O)[nH]1 [5-FU, 5-fluoro-1,2,3,4-tetrahydropyrimidine-2,5-dione] |  |  |  |  |  |  |  |  |  |  |  |  |  |  | decrease in tumor cell proliferation, antitumor agent alone ([5]; 50 μM): 91%; decrease in tumor cell proliferation, antitumor agent alone ([6]; 50 μM): 91%; decrease in tumor cell proliferation, antitumor agent alone ([7]; 50 μM): 85%; cytotoxicity at 50 µM (Hepa 1-6 tumor cells; Mus musculus, Hepa1-6, 50 μM, no antioxidant, read-out: decrease in cell viability, antitumor agent alone, on average): 65%; cytotoxicity at 50 µM (CT26 tumor cells; Mus musculus, CT26, 50 μM, no antioxidant, read-out: decrease in cell viability, antitumor agent alone, on average): 85%; cytotoxicity at 50 µM (A549 tumor cells; Homo sapiens, A549, 50 μM, no antioxidant, read-out: decrease in cell viability, antitumor agent alone, on average): 25%; decrease in viability of normal leukocytes, antitumor agent alone (normal human leukocytes; 40 mM): approximately 19% |
| CC(=O)N[C@@H](CS)C(=O)O [NAC, N-acetylcystein] |  |  |  | completely blocks | decreases | decreases | decreases | decreases | does not influence | does not modify |  | reduces | reduces | inhibits | increase in proliferation ([5]; 100 μM, 48 h incubation): 73%; increase in proliferation ([6]; 400 μM, 48 h incubation): 47%; increase in proliferation ([7]; 400 μM, 48 h incubation): 45%; increase in tumor volumes after one month compared with mice which do not receive NAC ([1]; 150 mg/kg i.p., three injections per week, mice not treated with oxaliplatin): 44%; effect on the inhibitory effect of oxaliplatin on tumor growth ([1]; mice treated with oxaliplatin 20 mg/kg, NAC 150 mg/kg i.p.): completely blocks; increase in tumor volumes after one month compared with mice which are not given NAC ([2]; 150 mg/kg i.p., three injections per week): 50%; effect on viability of normal human leukocytes (normal human leukocytes): no effect; effect on DNA impairments by mangafodipir, ROS and oxaliplatin (plasmid pcDNA3.1; NAC 5 mM): partially inhibit; effect on DNA impairment by superoxide anions (xanthine/xanthine oxidase) (plasmid pcDNA3.1; NAC 5 mM, X/XO): inhibited; effect on DNA damage by oxaliplatin coincubated with X/XO (plasmid pcDNA3.1; NAC 5 mM, X/XO and low doses of oxaliplatin): decreases the damage; effect on tumor cell viability [3]: no effect |
| manganese dipyridoxyl phosphate [MnDPDP] | 54% | 63% | 34% |  | inhibits | inhibits | inhibits | increase | increases | increases | ~90% | increase | increases | increase | decrease in tumor volume at one month compared with animals treated only with oxaliplatin ([2]; 10 mg/kg i.p., three injections per week, plus oxaliplatin 20 mg/kg): 63%; effect on viability of normal human leukocytes (normal human leukocytes): does not influence; effect on the structure of plasmid DNA (form I / II / III) (plasmid pcDNA3.1): induces, per se, DNA damage; effect on tumor cell viability [3]: reduces, in a dose-dependent manner |
| N[C@@H]1CCCC[C@H]1N.O=C([O-])C(=O)[O-].[Pt+2] [oxaliplatin, [(1R,2R)-1,2-cyclohexanediamine-N,N′][oxalate-(2-)—O,O′]platinum (II)] |  |  |  |  |  |  |  |  |  |  |  |  |  |  | decrease in tumor cell proliferation, antitumor agent alone ([5]; 10 μM): 70%; decrease in tumor cell proliferation, antitumor agent alone ([6]; 10 μM): 91%; decrease in tumor cell proliferation, antitumor agent alone ([7]; 10 μM): 93%; decrease in cell viability, antitumor agent alone, on average (Hepa 1-6 tumor cells; 10 μM, no antioxidant): 50%; decrease in cell viability, antitumor agent alone, on average (CT26 tumor cells; 10 μM, no antioxidant): 27%; decrease in cell viability, antitumor agent alone, on average (A549 tumor cells; 10 μM, no antioxidant): 28%; tumor volumes compared with the nontreated animals ([1]; single injection of 20 mg/kg): divides the tumor volumes in half; tumor volumes compared with the nontreated animals ([2]; single injection of 20 mg/kg): divides the tumor volumes by four; decrease in viability of normal leukocytes, antitumor agent alone (normal human leukocytes; 1 mM): approximately 50%; effect on the structure of plasmid DNA (form I / II / III) (plasmid pcDNA3.1): dose-dependent impairment |
